The test system of test [1] is ODC. Conditions: tape-stripped mouse epidermis; M. Connor and N. Lowe 1983; cited from earlier work.
Test [2] concerns humans. The settings on record: cited from earlier work.
In test [3] the test system is ornithine decarboxylase (ODC). As to the kind of experiment: Tape-stripped epidermal ODC activity in female hairless mice (In Vivo Assay). On the set-up: species or system mouse (female hairless mice). An excerpt:
(§1) Tape-stripping mouse epidermis is quick and convenient method of inducing ODC activity that avoids the necessity of handling carcinogens. M. Connor and N. Lowe (J. Invest. Dermatol 43, 5174, 1983) have studied the ability of retinoids to inhibit ODC. […] In vitro methods have also been useful in determining the anti-hyperproliferative activity of drugs. C. Marcelo and J. Tomich (J. Invest. Dermatol. 81, 64s, 1983) have shown that neonatal mouse keratinocyte cultures can be used to identify drugs that inhibit DNA synthesis. More recently, R. Weiss, Eichner, R. and Sunn, T. T, J. Cell Biol., 98: 1397-1406, (1984) have shown that epidermal cultures are in fact, a model of epidermal hyperproliferation and therefore a good model for testing drugs that inhibit hyperporliferation.
Female hairless mice were tape-stripped and ODC activity determined according to the method of M. Connor and N. Lowe (J. Invest. Dermatol. 43, 5174, 1983).
**50 mg/kg; IP, 30 min before tapestripping

Test [4] relates to keratinocytes. As to the kind of experiment: Inhibition of DNA synthesis in neonatal mouse keratinocyte cultures (3H-thymidine; In Vitro Assay). It is filed as cell-based, mouse (neonatal balb/c). The settings on record: daily drug for three days; FIG. 2.
Description: as §1
Keratinocytes from 1-2 day old neonatal balb/c mice were used. Cells were plated in 35 mm culture dishes in M199 medium containing 10% FCS and incubated at 37° C. in 5% CO2. Cells were allowed to reach confluency at which time 0.01, 0.1, 1.0, 10 and 20 μM manoalide was added in DMSO. Fresh media and drug were added each day to culture for three days. On the fourth day cells were pulsed with ^3 H-thymidine (1 µCi/ml) to determine how much manoalide inhibited DNA syntheses (CPM/μg DNA).

As to `CC1=C(/C=C/C(C)=C/C=C/C(C)=C\C(=O)O)C(C)(C)CCC1` [13-cis retinoic acid], the “inhibition of ODC” value in test [1] is “active at inhibiting ODC”. The “therapeutic activity in humans” value in test [2] was “therapeutically active in humans”.
`CC1=C(CC/C(C)=C/CCC2=CCC(C3=CC(=O)OC3O)OC2O)C(C)(C)CCC1` (stereo not shown) [Manoalide]: the “% Inhibition (ODC)” value in test [3] (50 mg/kg, IP, 30 min before tapestripping, p < .05) is 54%. For the same compound, in test [3] (50 mg/kg, IP, 30 min before tapestripping, vehicle (soybean oil) 6.1 ± 1.2), the ODC was 2.8 ± 0.6 nmoles ^14 CO2 (mg protein/mg protein/hr). For the same compound, in test [3] (systemic administration), the “inhibition of tape-stripped ODC after systemic administration” value is given as “can also inhibit tape-stripped ODC”. In addition, the “inhibition of keratinocyte DNA synthesis” value in test [4] was “inhibit keratinocyte DNA synthesis in a dose related fashion”.
In the case of `CC1=C(/C=C/C(C)=C/C=C/C(C)=C/C(=O)O)C(C)(C)CCC1` [Trans-retinoic acid], the “inhibition of ODC” value in test [1] is “active at inhibiting ODC”. Moreover, the “therapeutic activity in humans” value in test [2] is listed as “therapeutically active in humans”.
With `CCOC(=O)/C=C(C)/C=C/C=C(C)/C=C/c1c(C)cc(OC)c(C)c1C` [etretinate], the “inhibition of ODC” value in test [1] is given as “active at inhibiting ODC”. In test [2], the “therapeutic activity in humans” value is reported as “therapeutically active in humans”.

Values taken from patent publication US4786651A, “Treatment of cutaneous hyperproliferative dermatoses with manoalide” (Allergan, Inc., priority 1986, dated 1988).
